Experimental data from patent US6358885B1, “Substituted phenylheterocyclic herbicides” (Mississippi State University, priority 1992, dated 2002).

How the values were obtained:
[1] = test system: bermudagrass; experiment: Test G preemergence/postemergence greenhouse plant response rating 0 to 100; type: in vivo, Cynodon dactylon; conditions: 0 to 100 scale
Procedure, shortened: (§1)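 Scoring: visual injury at 13 to 21 days post-application, compared with untreated controls. Planting: one species per pot in greenhouse medium. Dosing: compound in non-phytotoxic solvent, within one day of sowing for preemergence or at 2–4 leaves for postemergence.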

[2] = test system: pitted morningglory; experiment: as above; type: in vivo, Ipomoea lacunosa; conditions: 0 to 100 scale
Procedure, shortened: as §1

[3] = test system: itchgrass; experiment: as above; type: in vivo, Rottboellia exaltata; conditions: 0 to 100 scale
Procedure, shortened: as §1

[4] = test system: broadleaf signalgrass; experiment: as above; type: in vivo, Brachiaria plantaginea; conditions: 0 to 100 scale
Procedure, shortened: as §1

[5] = test system: speedwell; experiment: Test C preemergence/postemergence greenhouse plant response rating 0 to 100; type: in vivo, Veronica persica; conditions: for Plant response rating Speedwell: 0 to 100 scale
From the text: The compounds evaluated in this test were formulated in a non-phytoxic solvent and applied to the soil surface before plant seedlings emerged (preemergence application), to water that covered the soil surface (flood application), and to plants that were in the one-to-four leaf stage (postemergence application). A sandy loam soil was used for the preemergence and postemergence tests, while a silt loam soil was used in the flood test. Water depth was approximately 2.5 cm for the flood test and was maintained at this level for the duration of the test. Plant species in the preemergence and postemergence tests consisted of barley (Hordeum vulgare), bedstraw (Galium aparine), blackgrass (Alopecurus myosuroides), chickweed (Stellaria media), corn (Zea mays), cotton (Gossypium hirsutum), crabgrass (Digitaria sanguinalis), downy brome (Bromus tectorum), giant foxtail (Setaria faberii), lambsquarters (Chenopodium album), morningglory (Ipomoea hederacea), pigweed ([…]), rape (Brassica napus), ryegrass (Lolium multiflorum), sorghum (Sorghum bicolor), soybean (Glycine max), speedwell (Veronica persica), sugar beet (Beta vulgaris), velvetleaf (Abutilon theophrasti), wheat (Triticum aestivum), wild buckwheat (Polygonum convolvulus), and wild oat (Avena fatua). All plant species were planted one day before application of the compound for the preemergence portion-of this test. Plantings of these species were adjusted to produce plants of appropriate size for the post-emergence portion of the test. […] All plant species were grown using normal greenhouse practices. Visual evaluations of injury expressed on treated plants, when compared to untreated controls, were recorded approximately fourteen to twenty one days after application of the test compound. […] A dash (-) response means no test result.

[6] = test system: large crabgrass; experiment: Test G preemergence/postemergence greenhouse plant response rating 0 to 100; type: in vivo, Digitaria sanguinalis; conditions: 0 to 100 scale
Procedure, shortened: as §1

[7] = test system: peanut; experiment: as above; type: in vivo, Arachis hypoagaea; conditions: 0 to 100 scale
Procedure, shortened: as §1

[8] = test system: dallisgrass; experiment: as above; type: in vivo, Paspalum dilatatum; conditions: 0 to 100 scale
Procedure, shortened: as §1

[9] = test system: common ragweed; experiment: as above; type: in vivo, Ambrosia elatior; conditions: 0 to 100 scale
Procedure, shortened: as §1

[10] = test system: goosegrass; experiment: as above; type: in vivo, Eleusine indica; conditions: 0 to 100 scale
Procedure, shortened: as §1

[11] = test system: common purslane; experiment: as above; type: in vivo, Portulaca oleracea; conditions: 0 to 100 scale
Procedure, shortened: as §1

[12] = test system: smooth crabgrass; experiment: as above; type: in vivo, Digitaria ischaemum; conditions: 0 to 100 scale
Procedure, shortened: as §1

[13] = test system: guineagrass; experiment: as above; type: in vivo, Panicum maximum; conditions: 0 to 100 scale
Procedure, shortened: as §1

[14] = test system: yellow nutsedge; experiment: as above; type: in vivo, Cyperus esculentus; conditions: Rate 125 g/ha, 0 to 100 scale
Procedure, shortened: as §1

[15] = test system: johnsongrass; experiment: as above; type: in vivo, Sorghum halepense; conditions: 0 to 100 scale
Procedure, shortened: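 Visual injury scores, taken 13–21 d after spraying and judged against untreated pots; dash = not tested. Single-species greenhouse pots; test chemical dissolved in non-phytotoxic solvent. Pre: applied ≤1 d post-planting.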

[16] = test system: sandbur; experiment: as above; type: in vivo, Cenchrus echinatus; conditions: 0 to 100 scale
Procedure, shortened: as §1

[17] = test system: annual bluegrass; experiment: as above; type: in vivo, Poa annua; conditions: 0 to 100 scale
Procedure, shortened: as §1

## C#CCOc1cc(-c2nn3c(c2Br)CCCC3)c(F)cc1Cl [Compound 26]
[1]; POSTEMERGENCE, Rate 125 g/ha
  Plant response rating, Bermudagrass: 0
[1]; POSTEMERGENCE, Rate 250 g/ha
  Plant response rating, Bermudagrass: 0
[1]; PREEMERGENCE, Rate 125 g/ha
  Plant response rating, Bermudagrass: 0
[1]; PREEMERGENCE, Rate 250 g/ha
  Plant response rating, Bermudagrass: 0
[2]; POSTEMERGENCE, Rate 125 g/ha
  Plant response rating, Pit Morninglory: 0
[2]; POSTEMERGENCE, Rate 250 g/ha
  Plant response rating, Pit Morninglory: 40
[2]; PREEMERGENCE, Rate 125 g/ha
  Plant response rating, Pit Morninglory: 0
[2]; PREEMERGENCE, Rate 250 g/ha
  Plant response rating, Pit Morninglory: 20
[3]; POSTEMERGENCE, Rate 125 g/ha
  Plant response rating, Itchgrass: 0
[3]; POSTEMERGENCE, Rate 250 g/ha
  Plant response rating, Itchgrass: 0
[3]; PREEMERGENCE, Rate 125 g/ha
  Plant response rating, Itchgrass: 0
[3]; PREEMERGENCE, Rate 250 g/ha
  Plant response rating, Itchgrass: 50
[4]; POSTEMERGENCE, Rate 125 g/ha
  Plant response rating, Brdlf Sgnlgrass: 0
[4]; POSTEMERGENCE, Rate 250 g/ha
  Plant response rating, Brdlf Sgnlgrass: 0
[4]; PREEMERGENCE, Rate 125 g/ha
  Plant response rating, Brdlf Sgnlgrass: 0
[4]; PREEMERGENCE, Rate 250 g/ha
  Plant response rating, Brdlf Sgnlgrass: 0
[5]; POSTEMERGENCE, 62 g/ha
  Plant response rating Speedwell: 100
[5]; POSTEMERGENCE, 250 g/ha
  Plant response rating Speedwell: 100
[5]; POSTEMERGENCE, Rate 4 g/ha
  Plant response rating (0 to 100), Speedwell: 90
[5]; PREEMERGENCE, 250 g/ha
  Plant response rating Speedwell: 100
[5]; PREEMERGENCE, Rate 4 g/ha
  Plant response rating (0 to 100), Speedwell: 90
[5]; Rate 16 g/ha, POSTEMERGENCE
  Plant response rating (0 to 100), Speedwell: 100
[5]; Rate 16 g/ha, PREEMERGENCE
  Plant response rating (0 to 100), Speedwell: 100
[6]; POSTEMERGENCE, Rate 125 g/ha
  Plant response rating, Large Crabgrass: 0
[6]; POSTEMERGENCE, Rate 250 g/ha
  Plant response rating, Large Crabgrass: 0
[6]; PREEMERGENCE, Rate 125 g/ha
  Plant response rating, Large Crabgrass: 90
[6]; PREEMERGENCE, Rate 250 g/ha
  Plant response rating, Large Crabgrass: 90
[7]; POSTEMERGENCE, Rate 125 g/ha
  Plant response rating, Peanuts: 0
[7]; POSTEMERGENCE, Rate 250 g/ha
  Plant response rating, Peanuts: 0
[7]; PREEMERGENCE, Rate 250 g/ha
  Plant response rating, Peanuts: 0
[8]; POSTEMERGENCE, Rate 125 g/ha
  Plant response rating, Dallisgrass: 0
[8]; POSTEMERGENCE, Rate 250 g/ha
  Plant response rating, Dallisgrass: 0
[8]; PREEMERGENCE, Rate 125 g/ha
  Plant response rating, Dallisgrass: 20
[8]; PREEMERGENCE, Rate 250 g/ha
  Plant response rating, Dallisgrass: 20
[9]; POSTEMERGENCE, Rate 125 g/ha
  Plant response rating, Cmn Ragweed: 80
[9]; POSTEMERGENCE, Rate 250 g/ha
  Plant response rating, Cmn Ragweed: 100
[9]; PREEMERGENCE, Rate 125 g/ha
  Plant response rating, Cmn Ragweed: 0
[9]; PREEMERGENCE, Rate 250 g/ha
  Plant response rating, Cmn Ragweed: 20
[10]; POSTEMERGENCE, Rate 125 g/ha
  Plant response rating, Goosegrass: 0
[10]; POSTEMERGENCE, Rate 250 g/ha
  Plant response rating, Goosegrass: 0
[10]; PREEMERGENCE, Rate 125 g/ha
  Plant response rating, Goosegrass: 70
[10]; PREEMERGENCE, Rate 250 g/ha
  Plant response rating, Goosegrass: 20
[11]; POSTEMERGENCE, Rate 125 g/ha
  Plant response rating, Cmn Purslane: 100
[11]; POSTEMERGENCE, Rate 250 g/ha
  Plant response rating, Cmn Purslane: 90
[11]; PREEMERGENCE, Rate 125 g/ha
  Plant response rating, Cmn Purslane: 30
[11]; PREEMERGENCE, Rate 250 g/ha
  Plant response rating, Cmn Purslane: 100
[12]; POSTEMERGENCE, Rate 125 g/ha
  Plant response rating, Smooth Crabgras: 0
[12]; POSTEMERGENCE, Rate 250 g/ha
  Plant response rating, Smooth Crabgras: 0
[12]; PREEMERGENCE, Rate 125 g/ha
  Plant response rating, Smooth Crabgras: 0
[12]; PREEMERGENCE, Rate 250 g/ha
  Plant response rating, Smooth Crabgras: 40
[13]; POSTEMERGENCE, Rate 125 g/ha
  Plant response rating, Guineagrass: 0
[13]; POSTEMERGENCE, Rate 250 g/ha
  Plant response rating, Guineagrass: 0
[13]; PREEMERGENCE, Rate 125 g/ha
  Plant response rating, Guineagrass: 0
[13]; PREEMERGENCE, Rate 250 g/ha
  Plant response rating, Guineagrass: 30
[14]; POSTEMERGENCE
  Plant response rating, Yellow Nutsedge: 0
[14]; PREEMERGENCE
  Plant response rating, Yellow Nutsedge: 0
[15]; POSTEMERGENCE, Rate 125 g/ha
  Plant response rating, Johnsongrass: 0
[15]; POSTEMERGENCE, Rate 250 g/ha
  Plant response rating, Johnsongrass: 0
[15]; PREEMERGENCE, Rate 125 g/ha
  Plant response rating, Johnsongrass: 0
[15]; PREEMERGENCE, Rate 250 g/ha
  Plant response rating, Johnsongrass: 0
[16]; POSTEMERGENCE, Rate 125 g/ha
  Plant response rating, S. Sandbur: 0
[16]; POSTEMERGENCE, Rate 250 g/ha
  Plant response rating, S. Sandbur: 0
[16]; PREEMERGENCE, Rate 125 g/ha
  Plant response rating, S. Sandbur: 0
[16]; PREEMERGENCE, Rate 250 g/ha
  Plant response rating, S. Sandbur: 0
[17]; POSTEMERGENCE, Rate 125 g/ha
  Plant response rating, Ann Bluegrass: 0
[17]; POSTEMERGENCE, Rate 250 g/ha
  Plant response rating, Ann Bluegrass: 0
[17]; PREEMERGENCE, Rate 125 g/ha
  Plant response rating, Ann Bluegrass: 0
[17]; PREEMERGENCE, Rate 250 g/ha
  Plant response rating, Ann Bluegrass: 0
